According to patent US8192962B2, “Processes for detecting toxic substances” (Daikin Industries, Ltd., priority 2001, dated 2012):

Tested on: Mitochondria-located protein genes
Assay: DNA chip mRNA expression in yeast, mitochondria-located protein genes (Table 2)
Type: cell-based, Saccharomyces cerevisiae S288C
Conditions: cells incubated two hours with the chemical substance
Protocol: Yeast (Saccharomyces cerevisiae S288C (α SUC2mal mel gap2 CUP1)) were incubated at 25° C. on YPD medium (yeast extract 1%, polypepton 2%, glucose 2%). One of toxic chemical substances was added to the cells at logarithmic growth phase, and the cells were further incubated for two hours. Cells were cultured without any chemical substance in the same condition, and were used as control. Concentrations of the chemical substances were defined to inhibit the growth of the yeast but not lead to death.
After completion of the incubation, the culture was centrifuged to collect the cells. To the cells, sodium acetate buffer (50 mM sodium acetate, 10 mM EDTA, 1% SDS) was added, and the mixture was shaken at 65° C. for five minutes, followed by returning to room temperature, and obtaining the supernatant, of which the procedures were repeated two times. To the supernatant, ½ amount of a solution of phenol/chloroform was added, and the mixture was centrifuged to give a supernatant, which was added with an equal amount of chloroform, and the mixture was centrifuged to give a supernatant. To the supernatant, an equal amount of isopropanol containing 0.3 M sodium acetate was added, and the mixture was allowed to stand at room temperature for 30 minutes, after which the mixture was centrifuged to give a sediment of the whole RNAs. Seventy % ethanol was added to the sediment, and the mixture was again centrifuged to give a sediment, which was then dried and dissolved in water. mRNA was isolated from the whole RNAs as followings. In view of the fact that a poly A chain is attached to the 3′ terminus of mRNA, a polynucleotide having a poly T structure which was immobilized on the surface of latex beads was used to trap the mRNA, and then the mRNA was washed and eluted with spine column (Oligotex-dT30<Super>mRNA Purification Kit, Takara). Reverse transcription of the mRNA was conducted with a reverse transcriptase (Super Script II Reverse Transcriptase; catalogue No. 18064-014, GibcoBRL) using fluorescence-labeled nucleotides to give cDNAs that were introduced with Cy3-dUTP or Cy5-dUTP during the reverse transcription.
The labeled cDNAs were dissolved in TE buffer (10mM Tris-HCl/1 mM EDTA, pH8.0), and the solution was dropped on the DNA chip containing the whole genes of yeast (DNA Chip Research Inc. Japan) so that the cDNAs were hybridized on the DNA chip at 65° C. for over 12 hours. The fluoresces intensity of the DNA chip was read with a scanner, and the ratio relative to the fluorescence intensity resulting from the absence of chemical substance was estimated as the following, which is shown in Tables 1 to 9: […]

[Cl][Hg][Cl] [(3), HgCl2]
The level of expressed mRNA in the presence of chemical substance/The level of expressed mRNA in the absence of chemical substance (yeast gene YJR121W): 3.3 | The level of expressed mRNA in the presence of chemical substance/The level of expressed mRNA in the absence of chemical substance (yeast gene YKL003C): 0.8 | The level of expressed mRNA in the presence of chemical substance/The level of expressed mRNA in the absence of chemical substance (yeast gene YKL016C): 0.7 | The level of expressed mRNA in the presence of chemical substance/The level of expressed mRNA in the absence of chemical substance (yeast gene YKL141W): 4.7 | The level of expressed mRNA in the presence of chemical substance/The level of expressed mRNA in the absence of chemical substance (yeast gene YKL142W): 3.1 | The level of expressed mRNA in the presence of chemical substance/The level of expressed mRNA in the absence of chemical substance (yeast gene YKL148C): 3.7 | The level of expressed mRNA in the presence of chemical substance/The level of expressed mRNA in the absence of chemical substance (yeast gene YKL170W): 0.5 | The level of expressed mRNA in the presence of chemical substance/The level of expressed mRNA in the absence of chemical substance (yeast gene YKL194C): 0.8 | The level of expressed mRNA in the presence of chemical substance/The level of expressed mRNA in the absence of chemical substance (yeast gene YKR066C): 5.5 | The level of expressed mRNA in the presence of chemical substance/The level of expressed mRNA in the absence of chemical substance (yeast gene YLL041C): 4.6 | The level of expressed mRNA in the presence of chemical substance/The level of expressed mRNA in the absence of chemical substance (yeast gene YLR038C): 0.6 | The level of expressed mRNA in the presence of chemical substance/The level of expressed mRNA in the absence of chemical substance (yeast gene YLR259C): 3.1 | The level of expressed mRNA in the presence of chemical substance/The level of expressed mRNA in the absence of chemical substance (yeast gene YLR295C): 1.1 | The level of expressed mRNA in the presence of chemical substance/The level of expressed mRNA in the absence of chemical substance (yeast gene YLR304C): 5.0 | The level of expressed mRNA in the presence of chemical substance/The level of expressed mRNA in the absence of chemical substance (yeast gene YLR348C): 1.2 | The level of expressed mRNA in the presence of chemical substance/The level of expressed mRNA in the absence of chemical substance (yeast gene YLR395C): 2.2 | The level of expressed mRNA in the presence of chemical substance/The level of expressed mRNA in the absence of chemical substance (yeast gene YML054C): 1.3 | The level of expressed mRNA in the presence of chemical substance/The level of expressed mRNA in the absence of chemical substance (yeast gene YML120C): 1.9 | The level of expressed mRNA in the presence of chemical substance/The level of expressed mRNA in the absence of chemical substance (yeast gene YML129C): 0.9 | The level of expressed mRNA in the presence of chemical substance/The level of expressed mRNA in the absence of chemical substance (yeast gene YMR023C): 0.5 | The level of expressed mRNA in the presence of chemical substance/The level of expressed mRNA in the absence of chemical substance (yeast gene YMR035W): 1.5 | The level of expressed mRNA in the presence of chemical substance/The level of expressed mRNA in the absence of chemical substance (yeast gene YMR083W): 2.6 | The level of expressed mRNA in the presence of chemical substance/The level of expressed mRNA in the absence of chemical substance (yeast gene YMR089C): 0.9 | The level of expressed mRNA in the presence of chemical substance/The level of expressed mRNA in the absence of chemical substance (yeast gene YMR152W): 1.8 | The level of expressed mRNA in the presence of chemical substance/The level of expressed mRNA in the absence of chemical substance (yeast gene YMR203W): 3.0 | The level of expressed mRNA in the presence of chemical substance/The level of expressed mRNA in the absence of chemical substance (yeast gene YMR267W): 0.7 | The level of expressed mRNA in the presence of chemical substance/The level of expressed mRNA in the absence of chemical substance (yeast gene YNL055C): 5.5 | The level of expressed mRNA in the presence of chemical substance/The level of expressed mRNA in the absence of chemical substance (yeast gene YNL071W): 1.7 | The level of expressed mRNA in the presence of chemical substance/The level of expressed mRNA in the absence of chemical substance (yeast gene YNL073W): 0.9 | The level of expressed mRNA in the presence of chemical substance/The level of expressed mRNA in the absence of chemical substance (yeast gene YNL104C): 3.0 | The level of expressed mRNA in the presence of chemical substance/The level of expressed mRNA in the absence of chemical substance (yeast gene YNL256W): 0.6 | The level of expressed mRNA in the presence of chemical substance/The level of expressed mRNA in the absence of chemical substance (yeast gene YOL096C): 1.2 | The level of expressed mRNA in the presence of chemical substance/The level of expressed mRNA in the absence of chemical substance (yeast gene YOR020C): 1.7 | The level of expressed mRNA in the presence of chemical substance/The level of expressed mRNA in the absence of chemical substance (yeast gene YOR037W): 0.6 | The level of expressed mRNA in the presence of chemical substance/The level of expressed mRNA in the absence of chemical substance (yeast gene YOR100C): 1.6 | The level of expressed mRNA in the presence of chemical substance/The level of expressed mRNA in the absence of chemical substance (yeast gene YOR130C): 1.4 | The level of expressed mRNA in the presence of chemical substance/The level of expressed mRNA in the absence of chemical substance (yeast gene YOR142W): 3.4 | The level of expressed mRNA in the presence of chemical substance/The level of expressed mRNA in the absence of chemical substance (yeast gene YOR150W): 1.0 | The level of expressed mRNA in the presence of chemical substance/The level of expressed mRNA in the absence of chemical substance (yeast gene YOR176W): 2.7 | The level of expressed mRNA in the presence of chemical substance/The level of expressed mRNA in the absence of chemical substance (yeast gene YOR187W): 1.9 | The level of expressed mRNA in the presence of chemical substance/The level of expressed mRNA in the absence of chemical substance (yeast gene YOR316C): 1.5 | The level of expressed mRNA in the presence of chemical substance/The level of expressed mRNA in the absence of chemical substance (yeast gene YPL040C): 0.8 | The level of expressed mRNA in the presence of chemical substance/The level of expressed mRNA in the absence of chemical substance (yeast gene YPL134C): 1.6 | The level of expressed mRNA in the presence of chemical substance/The level of expressed mRNA in the absence of chemical substance (yeast gene YPL135W): 2.5 | The level of expressed mRNA in the presence of chemical substance/The level of expressed mRNA in the absence of chemical substance (yeast gene YPL215W): 1.0 | The level of expressed mRNA in the presence of chemical substance/The level of expressed mRNA in the absence of chemical substance (yeast gene YPL262W): 3.8 | The level of expressed mRNA in the presence of chemical substance/The level of expressed mRNA in the absence of chemical substance (yeast gene YPR024W): 1.3 | The level of expressed mRNA in the presence of chemical substance/The level of expressed mRNA in the absence of chemical substance (yeast gene YPR037C): 1.6 | The level of expressed mRNA in the presence of chemical substance/The level of expressed mRNA in the absence of chemical substance (yeast gene YPR047W): 0.9 | The level of expressed mRNA in the presence of chemical substance/The level of expressed mRNA in the absence of chemical substance (yeast gene YPR134W): 0.8
